pIC50: −log10 of the molar value. Like-named read-outs stand apart in the source and are kept apart here.
Experiments:
post-operative delirium = assay: Prospective clinical study for the prevention of post-operative delirium (Confusion Assessment Method); type: in vivo, patients
Text: In order to be able to test the effect of the pharmaceutical forms of the invention on patients, a prospective study was accomplished for the prevention of post-operative delirium at five Austrian orthopedic hospitals (two in Vienna, and one each in Linz, Graz and Krems) and all together 229 patients, who underwent hip replacement and/or combined planned surgical intervention for implantation were part of the study.
Hip/Knee endoprosthesis. The patients of the group were given in the evening following the surgical intervention (day 0) 8 mg galanthamine HCl, then on the days 1 to 4 in each case 4 mg in the morning and at noon and 8 mg in the evening, i.e., 16 mg t.i.d. to the fifth day. […], the dose was reduced to 8 mg b.i.d., starting from that day until the 6th day when no more treatment took place.
For the determination of the effectiveness with the help of the “Confusion Assessment Method” (Lit.14) 155 patients could be consulted. In the group of placebos 7 patients (8, 5%) developed an post-operative delirium, in the galanthamine group only one patient (1, 4%) developed post-operative delirium, which corresponds to a statistically significant difference (p=0, 044).

Acetylcholinesterase [1] = target: T1, Acetylcholinesterase (Homo sapiens, UniProt P22303)
T1 sequence (P22303 32-614): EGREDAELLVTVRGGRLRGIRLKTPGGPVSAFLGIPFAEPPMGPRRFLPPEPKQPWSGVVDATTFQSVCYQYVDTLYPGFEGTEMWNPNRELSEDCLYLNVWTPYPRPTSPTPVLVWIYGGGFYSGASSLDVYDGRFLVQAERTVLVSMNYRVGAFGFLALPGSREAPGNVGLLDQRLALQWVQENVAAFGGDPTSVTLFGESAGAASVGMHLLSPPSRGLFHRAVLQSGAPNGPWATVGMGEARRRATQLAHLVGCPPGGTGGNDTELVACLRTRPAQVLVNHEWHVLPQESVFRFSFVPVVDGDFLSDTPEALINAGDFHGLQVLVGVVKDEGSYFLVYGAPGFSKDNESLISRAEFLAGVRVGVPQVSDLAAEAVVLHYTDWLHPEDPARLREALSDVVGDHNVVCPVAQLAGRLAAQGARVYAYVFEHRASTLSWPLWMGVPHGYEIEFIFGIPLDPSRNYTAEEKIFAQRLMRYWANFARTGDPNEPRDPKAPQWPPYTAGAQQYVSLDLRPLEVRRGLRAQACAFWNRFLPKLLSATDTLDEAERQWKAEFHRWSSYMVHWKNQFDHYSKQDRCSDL

Butyrylcholinesterase = Butyrylcholinesterase (Homo sapiens, UniProt P06276); assay: biochemical
Sequence of Butyrylcholinesterase (P06276 29-602): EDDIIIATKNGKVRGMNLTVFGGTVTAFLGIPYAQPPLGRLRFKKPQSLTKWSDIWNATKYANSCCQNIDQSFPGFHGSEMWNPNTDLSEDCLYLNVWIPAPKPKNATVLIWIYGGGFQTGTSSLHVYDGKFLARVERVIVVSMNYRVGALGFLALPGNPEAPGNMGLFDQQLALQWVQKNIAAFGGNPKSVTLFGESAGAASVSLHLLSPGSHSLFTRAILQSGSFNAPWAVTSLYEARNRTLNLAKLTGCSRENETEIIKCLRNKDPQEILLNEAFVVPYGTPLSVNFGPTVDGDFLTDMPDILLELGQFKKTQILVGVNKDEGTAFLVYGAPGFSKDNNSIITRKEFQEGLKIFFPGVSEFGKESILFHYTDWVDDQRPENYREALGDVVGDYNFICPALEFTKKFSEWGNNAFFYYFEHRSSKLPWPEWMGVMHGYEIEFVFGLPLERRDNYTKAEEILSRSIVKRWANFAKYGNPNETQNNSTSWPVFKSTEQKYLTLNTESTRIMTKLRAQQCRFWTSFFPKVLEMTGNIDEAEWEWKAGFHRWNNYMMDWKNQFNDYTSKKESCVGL

Acetylcholinesterase [2] = target: T1, Acetylcholinesterase; assay: biochemical
[3] = system: medicament-induced delirium; details: one patient, WO 00/32185 A; cited from earlier work

| SMILES | pIC50 (Butyrylcholinesterase) | pIC50 (Acetylcholinesterase [2]) | other results |
| --- | --- | --- | --- |
| COc1ccc2c3c1O[C@H]1C[C@@H](O)C=C[C@@]31CCN(C)C2 [galanthamine] | – | – | patients who developed post-operative delirium (number) (post-operative delirium; hip/knee endoprosthesis patients, oral galanthamine day 0 to 5, Confusion Assessment Method, 155 patients evaluated, placebo 7 patients): one; improvement of the symptoms of acute POD (post-operative delirium; oral administration, patients with limited cognitive ability with acute POD): unexpected and large improvement of the symptoms; observed side effects of galanthamine administration (post-operative delirium; oral administration, post-operative patients): very small; patients who developed post-operative delirium (percent) (post-operative delirium; po, 0 h): 1, 4% |
| COc1cc2c(cc1OC)C(=O)C(CCCCN1CC[C@@]34C=C[C@H](O)C[C@@H]3Oc3c(OC)ccc(c34)C1)C2 (some centres unmarked) [Nr 167] | – | – | pIC50 (Acetylcholinesterase [1]): 7.70 |
| COc1cc(C)c2c3c1OC1C[C@@H](O)C=CC31CC[N+](C)(C)C2 (mixture of isomers) [Nr 107] | 4.85 | < 4.00 | – |
| COc1ccc2c3c1OC1C/C(=N/NC(N)=O)C=CC31CCN(C)C2 (racemic) [Nr 32] | 4.70 | < 4.00 | – |
| C#CC[N+]1(C)CCC23C=C[C@@H](O)CC2Oc2c(OC)cc(C)c(c23)C1 (mixture of isomers) [Nr 103] | 4.35 | 4.23 | – |
| CCOC(=O)C(=O)N1CCC23C=C[C@H](O)CC2Oc2c(OC)cc(Br)c(c23)C1 (mixture of isomers) [Nr 20] | 4.96 | 4.49 | – |
| COc1ccc2c3c1O[C@H]1C[C@@H](O)C=C[C@@]31CC[N+](C)(Cc1ccc(Br)cc1)C2 (some centres unmarked) [Nr 58] | 6.22 | 6.70 | – |
| CCN(C)C(=O)Oc1cccc([C@H](C)N(C)C)c1 [rivastigmine] | – | – | treatment of delirium after lithium intoxication [3]: successfully treated |
| COc1ccc2c3c1OC1C[C@@H](O)C=CC31CCN(CCC(=O)NC(C)C)C2 (mixture of isomers) [Nr 109] | 4.44 | 4.26 | – |
| COc1ccc2c3c1O[C@H]1C[C@@H](O)C=C[C@@]31CCN(C(=O)NC(C)C)C2 [Nr 114] | 5.00 | 5.59 | – |
| COc1ccc2c3c1O[C@H]1C[C@@H](O)C=C[C@@]31CC[N+](C)=C2 [Nr 127] | 5.82 | 6.52 | – |
| C#CCN1CCC23C=C[C@H](O)CC2Oc2c(OC)cc(Br)c(c23)C1 (mixture of isomers) [Nr 23] | 5.00 | 4.20 | – |
| C=CCN1CCC23C=C[C@H](O)CC2Oc2c(OC)cc(C)c(c23)C1 (mixture of isomers) [Nr 62] | 5.64 | < 4.00 | – |
| COc1ccc2c3c1OC1C[C@@H](O)C=CC31CCN(CCCN)C2 (mixture of isomers) [Nr 90] | 4.96 | 5.47 | – |
| COc1cc(Br)c2c3c1OC1C[C@@H](O)C=CC31CCN(CC(N)=O)C2 (mixture of isomers) [Nr 27] | 4.82 | < 4.00 | – |
| CCOC(=O)/C=C/N1CCC23C=C[C@H](O)CC2Oc2c(OC)ccc(c23)C1 (mixture of isomers) [Nr 110] | < 4.00 | 4.30 | – |
| COc1cc(C)c2c3c1OC1C[C@@H](O)C=CC31CCN(C)C2C#N (mixture of isomers) [Nr 145] | < 4.00 | 4.10 | – |
| CCOC(=O)CCN1CCC23C=C[C@H](O)CC2Oc2c(OC)cc(Br)c(c23)C1 (mixture of isomers) [Nr 55] | 4.72 | < 4.00 | – |
| COc1cc(C)c2c3c1OC1C[C@H](O)C=CC31CC[N+](C)(Cc1ccccc1)C2 (mixture of isomers) [Nr 106] | 5.52 | < 4.00 | – |
